IC50 data for 70 compounds are collected here from patent publication US8835472B2, “Compounds, pharmaceutical compositions and uses thereof” (Boehringer Ingelheim International GmbH, priority 2010, dated 2014).

Sequence of human ACC2 (O00763 129-2458): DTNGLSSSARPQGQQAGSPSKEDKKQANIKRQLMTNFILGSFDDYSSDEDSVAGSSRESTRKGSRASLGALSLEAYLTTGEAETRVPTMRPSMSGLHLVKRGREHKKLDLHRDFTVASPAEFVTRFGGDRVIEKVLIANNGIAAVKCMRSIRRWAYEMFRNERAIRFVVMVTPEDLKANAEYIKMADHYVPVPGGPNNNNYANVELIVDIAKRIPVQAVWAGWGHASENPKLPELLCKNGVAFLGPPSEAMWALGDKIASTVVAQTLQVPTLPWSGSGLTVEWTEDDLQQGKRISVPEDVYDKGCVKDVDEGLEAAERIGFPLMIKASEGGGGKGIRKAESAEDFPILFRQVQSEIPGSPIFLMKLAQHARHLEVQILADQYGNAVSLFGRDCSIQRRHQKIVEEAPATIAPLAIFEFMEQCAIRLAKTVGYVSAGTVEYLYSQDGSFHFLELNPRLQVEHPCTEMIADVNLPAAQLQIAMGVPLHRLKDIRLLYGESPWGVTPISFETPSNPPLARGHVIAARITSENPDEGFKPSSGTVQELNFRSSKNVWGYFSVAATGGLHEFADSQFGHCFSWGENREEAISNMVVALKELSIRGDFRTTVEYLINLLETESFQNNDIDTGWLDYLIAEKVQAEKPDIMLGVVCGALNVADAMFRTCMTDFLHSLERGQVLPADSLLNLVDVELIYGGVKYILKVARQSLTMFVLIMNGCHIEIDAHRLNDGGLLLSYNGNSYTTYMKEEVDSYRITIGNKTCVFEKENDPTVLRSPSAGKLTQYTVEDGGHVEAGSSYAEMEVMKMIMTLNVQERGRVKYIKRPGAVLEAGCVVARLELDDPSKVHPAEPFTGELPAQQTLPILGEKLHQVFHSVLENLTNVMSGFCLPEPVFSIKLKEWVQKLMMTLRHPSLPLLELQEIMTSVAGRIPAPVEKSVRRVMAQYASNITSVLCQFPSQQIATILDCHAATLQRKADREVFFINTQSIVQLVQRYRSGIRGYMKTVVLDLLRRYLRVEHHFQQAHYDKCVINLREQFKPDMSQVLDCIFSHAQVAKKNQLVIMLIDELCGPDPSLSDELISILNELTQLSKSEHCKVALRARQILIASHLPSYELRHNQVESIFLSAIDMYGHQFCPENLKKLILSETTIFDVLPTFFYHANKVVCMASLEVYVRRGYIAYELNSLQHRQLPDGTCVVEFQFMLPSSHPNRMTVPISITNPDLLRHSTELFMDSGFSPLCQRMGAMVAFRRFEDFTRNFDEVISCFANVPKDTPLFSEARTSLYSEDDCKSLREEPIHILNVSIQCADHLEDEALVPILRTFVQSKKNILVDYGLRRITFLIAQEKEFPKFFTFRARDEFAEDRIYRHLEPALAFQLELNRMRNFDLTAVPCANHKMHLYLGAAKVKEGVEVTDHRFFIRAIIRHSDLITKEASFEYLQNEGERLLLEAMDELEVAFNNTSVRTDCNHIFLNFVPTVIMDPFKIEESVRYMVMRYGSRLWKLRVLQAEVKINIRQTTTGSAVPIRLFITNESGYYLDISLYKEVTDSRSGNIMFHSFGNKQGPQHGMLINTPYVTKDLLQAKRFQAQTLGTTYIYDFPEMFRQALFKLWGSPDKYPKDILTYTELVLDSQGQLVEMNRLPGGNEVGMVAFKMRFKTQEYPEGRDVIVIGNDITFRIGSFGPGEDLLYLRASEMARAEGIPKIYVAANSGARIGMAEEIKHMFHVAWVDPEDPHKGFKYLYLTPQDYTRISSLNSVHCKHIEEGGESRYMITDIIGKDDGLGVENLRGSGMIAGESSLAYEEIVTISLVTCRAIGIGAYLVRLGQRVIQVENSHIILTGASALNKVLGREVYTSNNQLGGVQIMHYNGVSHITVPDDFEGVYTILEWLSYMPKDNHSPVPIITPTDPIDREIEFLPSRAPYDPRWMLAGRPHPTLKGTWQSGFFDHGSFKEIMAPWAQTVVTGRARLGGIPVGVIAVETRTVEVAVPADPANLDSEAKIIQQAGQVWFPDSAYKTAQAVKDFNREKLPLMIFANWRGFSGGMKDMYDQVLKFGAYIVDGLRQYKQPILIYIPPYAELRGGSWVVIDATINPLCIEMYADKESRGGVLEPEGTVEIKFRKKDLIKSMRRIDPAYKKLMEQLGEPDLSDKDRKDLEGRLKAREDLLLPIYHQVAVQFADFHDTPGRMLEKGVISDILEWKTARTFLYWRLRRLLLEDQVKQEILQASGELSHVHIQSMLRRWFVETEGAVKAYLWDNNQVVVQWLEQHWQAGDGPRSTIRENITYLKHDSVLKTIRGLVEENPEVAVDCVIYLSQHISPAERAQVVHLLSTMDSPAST

This assay deals with human ACC2 (Homo sapiens (Human), UniProt O00763). Put plainly: ACC2 assay, spectrophotometric 384 well assay (NADH-linked, coupled lactate dehydrogenase/pyruvate kinase reaction). The conditions noted are these: hACC2 construct lacking the 128 N-terminal amino acids; 25° C., 340 nm over 15 minutes. It is filed as biochemical. As to the method:
Spectrophotometric 384 Well Assay
Malonyl CoA formation by acetyl CoA carboxylases is stoichometrically linked to the consumption of ATP. ACC2 activity is measured in a NADH-linked kinetic method measuring ADP generated during the ACC reaction using a coupled lactate dehydrogenase/pyruvate kinase reaction.
For biological testing, a human ACC2 construct which lacks the 128 amino acids at the N-terminus for increased solubility (nt 385-6966 in Genbank entry AJ575592) is cloned. The protein is then expressed in insect cells using a baculoviral expression system. Protein purification is performed by anion exchange.
All compounds are dissolved in dimethyl sulfoxide (DMSO) to a concentration of 10 mM.
Assay reactions are then carried out in 384-well plates, with hACC2 in an appropriate dilution and at final assay concentrations (f.c.) of 100 mM Tris (pH 7.5), 10 mM trisodium citrate, 25 mM KHCO3, 10 mM MgCl2, 0.5 mg/mL BSA, 3.75 mM reduced L-glutathione, 15 U/mL lactate dehydrogenase, 0.5 mM phosphoenolpyruvate, 15 U/mL pyruvate kinase, compounds at different concentrations at final DMSO concentrations of 1%.
The enzymatic reaction is then started by addition of a mixture of NADH, acetyl Coenzyme A (both 200 μM f.c.) and ATP (500 uM f.c.). The decrease of the optical density (slope S) is then determined at 25° C. at a wavelength of 340 nm over 15 minutes in a spectrophotometric reader.
Each assay microtiter plate contains wells with vehicle instead of compound as controls for the non-inhibited enzyme (100% CTL; ‘HIGH’) and wells without acetyl-CoA as controls for non-specific NADH degradation (0% CTL; ‘LOW’).
The slope S is used for calculation of % CTL=(S(compound)−S(‘LOW’))/(S(‘HIGH’)−S(‘LOW’))*100. Compounds will give values between 100% CTL (no inhibition) and 0% CTL (complete inhibition).
For IC50 value determination, the sample slope in the presence of the test compound after subtraction of the low controls (S(compound)−S(‘LOW’)) are used. An IC50 value is derived from the compound slopes at different dosages after subtraction of the low controls (S(compound)−S(‘LOW’)) by non-linear regression curve fitting (equation y=(A+((B−A)/(1+((C/x)^D))))).
The IC50 is the concentration needed to halve the response being measured. Low readings indicate greater potency in that assay, high ones weaker potency in that assay. As for `CCCCOc1cc(C#Cc2ccc(CC(C)NC(C)=O)cc2)ccn1` (stereo not shown) [Example 2.96], the IC50 turned out to be 130 nM.

Regarding `CC(=O)NC(C)Cc1ccc(C#Cc2ccnc(OC(C)C)c2)cc1` (stereo not shown) [Example 2.97], half-maximal inhibition (IC50) required 140 nM.

The compound `CC(=O)NC(C)Cc1ccc(C#Cc2ccnc(Oc3ccccc3)c2)cc1` (stereo not shown) [Example 2.98] showed an IC50 of 150 nM.

`CC(=O)NC(C)Cc1ccc(C#Cc2ncc(Cl)cn2)cc1` (stereo not shown) [Example 2.99] gave an IC50 of 7400 nM.

In turn, `CC(=O)NC(C)Cc1ccc(C#Cc2ccc(OC3CC3)cc2)cc1` (stereo not shown) [Example 2.100] yielded an IC50 of 120 nM.

`CSc1ccc(C#Cc2ccc(C(C)NC(C)=O)cc2)cc1` (stereo not shown) [Example 2.101]: half-maximal inhibition (IC50) required 350 nM.

Take `CCOc1cc(C#Cc2ccc(C(C)NC(C)=O)cc2)ccn1` (stereo not shown) [Example 2.102]: the IC50 is 580 nM.

In the case of `CC(=O)NC(C)c1ccc(C#Cc2cccc(OCc3ccccc3)c2)cc1` (stereo not shown) [Example 2.103], the half-maximal inhibitory concentration (IC50) turned out to be 500 nM.

As to `COc1ccc(C#Cc2ccc(C(C)NC(C)=O)cc2)cc1` (stereo not shown) [Example 2.104], the IC50 was 1500 nM.

The compound `CC(=O)NC(C)c1ccc(C#Cc2cnn(Cc3ccccc3)c2)cc1` (stereo not shown) [Example 2.105] showed an IC50 of 930 nM.

Consider `CC(=O)NC(C)Cc1ccc(C#Cc2c(C)noc2C)cc1` (stereo not shown) [Example 2.106], for which the IC50 was found to be 8200 nM.

`CC(=O)NC(C)Cc1ccc(C#Cc2cnn(C)c2)cc1` (stereo not shown) [Example 2.107] displayed an IC50 of 4900 nM.

In turn, `CC(=O)NC(C)Cc1ccc(C#Cc2cnn(Cc3ccccc3)c2)cc1` (stereo not shown) [Example 2.108] returned an IC50 of 300 nM.

The compound `COCc1ccc(C#Cc2ccc(CC(C)NC(C)=O)cc2)cc1` (stereo not shown) [Example 2.109] registered a concentration for half-maximal inhibition (IC50) of 790 nM.

As for `CC(=O)NC(C)Cc1ccc(C#Cc2ccc(C)cc2Cl)cc1` (stereo not shown) [Example 3.2], the IC50 worked out at 270 nM.

On to `COc1cc(C#Cc2ccc(CC(C)NC(C)=O)cc2)ccc1Cl` (stereo not shown) [Example 3.3], for which the IC50 was 1300 nM.

`COc1c(F)cc(C#Cc2ccc(CC(C)NC(C)=O)cc2)cc1F` (stereo not shown) [Example 3.4] showed a 50% inhibitory concentration (IC50) of 560 nM.

As to `CC(=O)NC(C)Cc1ccc(C#Cc2ccc3cc[nH]c3c2)cc1` (stereo not shown) [Example 3.5], the IC50 was determined as 660 nM.

`CC(=O)NC(C)Cc1ccc(C#Cc2ccc(Cl)c(C#N)c2)cc1` (stereo not shown) [Example 3.6] came in with an IC50 of 2300 nM.

On to `CC(=O)NC(C)Cc1ccc(C#Cc2cc3c(cc2C#N)OCO3)cc1` (stereo not shown) [Example 3.7], for which it took 10600 nM to reach half-maximal inhibition (IC50).

The compound `COc1ccc(Cl)c(C#Cc2ccc(CC(C)NC(C)=O)cc2)c1` (stereo not shown) [Example 3.8] came in with a 50% inhibitory concentration (IC50) of 690 nM.

`CC(=O)NC(C)Cc1ccc(C#Cc2ccnc(OCc3ccccc3)c2)cc1` (stereo not shown) [Example 3.9] returned an IC50 of 260 nM.

With `COC(=O)c1cc(C#Cc2ccc(CC(C)NC(C)=O)cc2)ccn1` (stereo not shown) [Example 3.10], the midpoint of inhibition, the IC50, lay at 4500 nM.

The compound `COc1ccc(C#Cc2ccc(CC(C)NC(C)=O)cc2)nc1` (stereo not shown) [Example 3.11] came in with a 50% inhibitory concentration (IC50) of 4300 nM.

The compound `COc1ccc(C#Cc2ccc(CC(C)NC(C)=O)cc2)c(C#N)c1` (stereo not shown) [Example 3.12] returned an IC50 of 1200 nM.

As for `CC(=O)NC(C)Cc1ccc(C#Cc2cccc(N(C)C)n2)cc1` (stereo not shown) [Example 3.13], it took 1700 nM to reach half-maximal inhibition (IC50).

Regarding `CC(=O)NC(C)Cc1ccc(C#Cc2ccc3c(c2)OCCO3)cc1` (stereo not shown) [Example 3.14], the IC50 is 220 nM.

Turning to `COc1ccc(C#Cc2ccc(CC(C)NC(C)=O)cc2)c(Cl)c1` (stereo not shown) [Example 3.15], the half-inhibitory concentration (IC50) was determined as 350 nM.

Turning to `CC(=O)NC(C)Cc1ccc(C#Cc2nccs2)cc1` (stereo not shown) [Example 3.16], the IC50 stood at 4700 nM.

Compound `COC(=O)c1ccc(C#Cc2ccc(CC(C)NC(C)=O)cc2)o1` (stereo not shown) [Example 3.17] came in with an IC50 of 880 nM.

For the compound `CCCC(=O)NC(C)Cc1ccc(C#Cc2ccc(OCC)cc2)cc1` (stereo not shown) [Example 4.1, N-(1-(4-((4-ethoxyphenyl)ethynyl)phenyl)propan-2-yl)butyramide], the IC50 is 210 nM.

For the compound `CCOc1ccc(C#Cc2ccc(CC(C)NC(=O)C(C)C)cc2)cc1` (stereo not shown) [Example 4.2], the IC50 is 190 nM.

For `C/C=C/C(=O)NC(C)Cc1ccc(C#Cc2ccc(OCC)cc2)cc1` (stereo not shown) [Example 4.3], the IC50 came to 220 nM.

`CCOc1ccc(C#Cc2ccc(CC(C)NC(=O)C3CC3)cc2)cc1` (stereo not shown) [Example 4.4] yielded a 50% inhibitory concentration (IC50) of 150 nM.

In turn, `CCOc1ccc(C#Cc2ccc(CC(C)NC(=O)C(C)O)cc2)cc1` (stereo not shown) [Example 4.5] yielded an IC50 of 1500 nM.

For `CCOc1ccc(C#Cc2ccc(CC(C)NC(=O)COC)cc2)cc1` (stereo not shown) [Example 4.6], the IC50 stood at 970 nM.

`CCOc1ccc(C#Cc2ccc(CC(C)NC(=O)CC)cc2)cc1` (stereo not shown) [Example 4.7] yielded a half-maximal inhibitory concentration (IC50) of 120 nM.

Turning to `C=CC(=O)NC(C)Cc1ccc(C#Cc2ccc(OCC)cc2)cc1` (stereo not shown) [Example 4.8], the 50% inhibitory concentration (IC50) was 460 nM.

With `CCOc1ccc(C#Cc2ccc(CC(C)NC(=O)CC#N)cc2)cc1` (stereo not shown) [Example 4.9], the 50% inhibitory concentration (IC50) is 400 nM.

As to `CCOc1ccc(C#Cc2ccc(CC(C)NC(=O)CN(C)C)cc2)cc1` (stereo not shown) [Example 4.10], 1100 nM corresponded to half-maximal inhibition (IC50).

For the compound `CCOc1ccc(C#Cc2ccc(CC(C)NC(=O)CCOC)cc2)cc1` (stereo not shown) [Example 4.11], the IC50 was determined as 1400 nM.

Regarding `CCOc1ccc(C#Cc2ccc(CC(C)NC(=O)C3(O)CC3)cc2)cc1` (stereo not shown) [Example 4.12], inhibition was half-maximal at 560 nM (IC50).

In turn, `CCOc1ccc(C#Cc2ccc(CC(C)NC(=O)CCC#N)cc2)cc1` (stereo not shown) [Example 4.13] gave a concentration for half-maximal inhibition (IC50) of 680 nM.

In turn, `CCOc1ccc(C#Cc2ccc(CC(C)NC(=O)c3cncnc3)cc2)cc1` (stereo not shown) [Example 4.14] gave an IC50 of 1200 nM.

`CCOc1ccc(C#Cc2ccc(CC(C)NC(=O)CS(C)(=O)=O)cc2)cc1` (stereo not shown) [Example 4.15] gave a 50% inhibitory concentration (IC50) of 780 nM.

Take `CCOc1ccc(C#Cc2ccc(CC(C)NC(=O)c3cc[nH]n3)cc2)cc1` (stereo not shown) [Example 4.16]: half-maximal inhibition (IC50) required 1600 nM.

As for `CCOc1ccc(C#Cc2ccc(CC(C)NC(=O)C=C(C)C)cc2)cc1` (stereo not shown) [Example 4.17], the IC50 amounted to 470 nM.

On to `CCOc1ccc(C#Cc2ccc(CC(C)NC(=O)CCO)cc2)cc1` (stereo not shown) [Example 4.18], for which the IC50 is 460 nM.

`CCOc1ccc(C#Cc2ccc(CC(C)NC(=O)c3ccccc3)cc2)cc1` (stereo not shown) [Example 4.19] yielded a half-inhibitory concentration (IC50) of 2800 nM.

As for `CCOc1ccc(C#Cc2ccc(CC(C)NC(=O)C3CCC3)cc2)cc1` (stereo not shown) [Example 4.20], the IC50 is 180 nM.

Consider `CCOc1ccc(C#Cc2ccc(CC(C)NC(=O)C3(C)CC3)cc2)cc1` (stereo not shown) [Example 4.21], for which the IC50 was found to be 140 nM.

As to `CCOc1ccc(C#Cc2ccc(CC(C)NC(=O)c3ccncc3)cc2)cc1` (stereo not shown) [Example 4.22], it took 930 nM to reach half-maximal inhibition (IC50).

In the case of `CCOc1ccc(C#Cc2ccc(CC(C)NC(=O)CC(C)C)cc2)cc1` (stereo not shown) [Example 4.23], the IC50 worked out at 310 nM.

With `CCOc1ccc(C#Cc2ccc(CC(C)NC(=O)C(=O)CC)cc2)cc1` (stereo not shown) [Example 4.24], the IC50 amounted to 1000 nM.

`CCCCC(=O)NC(C)Cc1ccc(C#Cc2ccc(OCC)cc2)cc1` (stereo not shown) [Example 4.25] gave a 50% inhibitory concentration (IC50) of 540 nM.

On to `CCOc1ccc(C#Cc2ccc(CC(C)NC(=O)C(F)F)cc2)cc1` (stereo not shown) [Example 4.26], for which the IC50 worked out at 230 nM.

In the case of `CCOc1ccc(C#Cc2ccc(CC(C)NC(=O)CNC)cc2)cc1` (stereo not shown) [Example 4.29], inhibition was half-maximal at 2700 nM (IC50).

`CCOc1ccc(C#Cc2ccc(CC(C)NC(=O)C(O)C(C)C)cc2)cc1` (stereo not shown) [Example 4.30] returned an IC50 of 1700 nM.

`CCOc1ccc(C#Cc2ccc(CC(C)NC(=O)CF)cc2)cc1` (stereo not shown) [Example 4.31] came in with a half-maximal inhibitory concentration (IC50) of 410 nM.

With `CCOc1ccc(C#Cc2ccc(CC(C)NC(=O)C3CNC(=O)C3)cc2)cc1` (stereo not shown) [Example 4.32], the concentration for half-maximal inhibition (IC50) was determined as 440 nM.

`CCOc1ccc(C#Cc2ccc(CC(C)NC(=O)C3CCOC3)cc2)cc1` (stereo not shown) [Example 4.33]: the IC50 was determined as 490 nM.

Take `CCOc1ccc(C#Cc2ccc(CC(C)NC(=O)C3CNC3)cc2)cc1` (stereo not shown) [Example 4.34]: half-maximal inhibition (IC50) was put at 600 nM.

Consider `CCOc1ccc(C#Cc2ccc(CC(C)NC(=O)C3CC3C)cc2)cc1` (stereo not shown) [Example 4.35], for which inhibition was half-maximal at 380 nM (IC50).

`CCOc1ccc(C#Cc2ccc(CC(C)NC(=O)C3CCCO3)cc2)cc1` (stereo not shown) [Example 4.37] displayed an IC50 of 900 nM.

Regarding `CCOc1ccc(C#Cc2ccc(CC(C)NC(=O)c3cnco3)cc2)cc1` (stereo not shown) [Example 4.38], the midpoint of inhibition, the IC50, lay at 170 nM.

In the case of `C=CC(=O)NC(C)c1ccc(C#Cc2ccc(OCC)cc2)cc1` (stereo not shown) [Example 4.39], the IC50 was found to be 710 nM.

`CCOc1ccc(C#Cc2ccc(C(C)NC(=O)C(C)O)cc2)cc1` (stereo not shown) [Example 4.40] returned a half-maximal inhibitory concentration (IC50) of 3700 nM.

On to `CCOc1ccc(C#Cc2ccc(C(C)NC(=O)C3CC3)cc2)cc1` (stereo not shown) [Example 4.41], for which half-maximal inhibition (IC50) was put at 2000 nM.

`CCOc1ccc(C#Cc2ccc(C(C)NC(=O)CCO)cc2)cc1` (stereo not shown) [Example 4.43] came in with an IC50 of 11000 nM.

`CCOc1ccc(C#Cc2ccc(C(C)NC(=O)C3(C)CC3)cc2)cc1` (stereo not shown) [Example 4.44]: it took 1500 nM to reach half-maximal inhibition (IC50).
